Source: article PMC9229894, “In Silico, In Vitro, and Pharmacokinetic Studies of UBMC-4, a Potential Novel Compound for Treating against Trypanosoma cruzi” (Pathogens, 2022)

Columns and labels:
[1] = Cytotoxicity, MTT method, HepG2; type: cell-based; conditions: human, HepG2 cells, read-out: LC50 median lethal concentration HepG2
Protocol: (§1) Cytotoxicity of UBMC-4 was tested in HepG2, CaCo2, and huMDM cell lines according to the effect on cell growth determined by the MTT microenzimatic method, as described by others. Briefly, 2.0 × 10^4 U-937 and huMDM or 2.5 × 10^4 HepG2 and CaCo2 cells were dispensed in 200 µL into each well of a 96-well tissue culture plate containing the corresponding culture medium. Then, 100 µL/well of each compound at a concentration of […] were added and plates were incubated at 37 °C, 5% CO2. After 72 h of incubation, 20 μL of MTT (Sigma-Aldrich, St Louis, MO, USA) were added to each well and plates were incubated for 3 h at 37 °C, 5% CO2. […] The concentration of formazan was determined at 570 nm in a spectrophotometer (Varioskan Flash Multimode Reader, Thermo Scientific, Waltham, MA, USA). […] Cytotoxicity was determined according to the percentages of viability and cell growth inhibition obtained for each compound, bz, doxorubicin, or medium alone. Non-specific absorbance was corrected by subtracting the OD of the blank (culture medium). Percentages of mortality were calculated using equation, as follows: % mortality = 100 − [(O.D. of treated cells)/(O.D. of non-treated cells)] × 100. The half maximal effective concentration (EC50) was calculated by the linear regression model Probit using Graphpad Prism software.

[2] = Cytotoxicity, MTT method, huMDM; type: cell-based; conditions: human, monocyte-derived macrophages (huMDM), read-out: LC50 median lethal concentration huMDM
Protocol: as §1

[3] = system: intracellular forms of Tulahuen strain; set-up: method as in Araujo-Lima et al. 2018 [44]; conditions: ref Araujo-Lima et al. 2018 [44]; read-out: EC50 against intracellular forms of Tulahuen strain; cited from earlier work
[4] = Cytotoxicity, MTT method, CaCo2; type: cell-based; conditions: human, Caco-2, read-out: LC50 median lethal concentration CaCo2
Protocol: as §1

[5] = system: T. cruzi Tulahuen strain amastigotes; test: Trypanocidal activity in intracellular amastigotes (β-galactosidase, U937 macrophages); type: cell-based, Trypanosoma cruzi
Protocol: To obtain intracellular amastigotes, 2.5 × 10^6 U937 differentiated macrophage cells were infected with T. cruzi epimastigotes (Tulahuen strain producing β-galactosidase, 24 h of growing) in a 5:1 parasite/cell ratio. To calculate EC50, 100 μL of UBMC-4 were added at four serial dilutions ([…]) to each well, and benznidazole (bz) was added at an initial concentration of 20 µg/mL and 6 serial 2-fold dilutions were used to determine its EC50 as a control of the effectiveness of the experiment, in addition to the control of the viability of the parasites (cells without drug treatment), from the blank of the culture medium (medium without cells), in duplicate. The cells were incubated for 72 h at 37 °C with 5% of CO2. All medium was removed and 100 µL of substrate for β-galactosidase diluted in PBS (chlorophenol β-d-galactopyranoside-CPRG network; Sigma-Aldrich, St Louis, MO, USA, at 100 mM and 0.1% Nonidet P-40) was added to each well and incubated at 37 °C for 3 h. The amount of chlorophenol red released was read at 570 nm in a spectrophotometer (Varioskan TM). Infected cells were used as negative control while infected cells treated with benznidazole were used as a positive control (trypanocidal activity) for the assay. RPMI-1640 medium was used as a negative control. Non-specific absorbance was corrected by subtracting the OD of the blank sample. Determinations were done in triplicate in at least two independent experiments.
The trypanocidal activity was determined based on the percentage of decrease of amastigotes determined using equation, as follows: % reduction of infection = 100 − (O.D. of treated infected cells)/(O.D. of non-treated infected cells) × 100. The half maximal effective concentration (EC50) was calculated by the linear regression model Probit using Graphpad Prism software.

T. cruzi trypomastigotes = test: Flow cytometry of apoptosis-like markers in trypomastigotes; type: cell-based, Trypanosoma cruzi; conditions: 10 µM
Protocol: Apoptosis-like markers were analyzed by triple staining using 3,3′-dihexyloxacarbocyanine (DiOC6), propidium iodide (PI), and Hoechst from Thermo Fisher Scientific to determine the change of mitochondrial membrane potential (ΔΨm), cell membrane damage, and impairment of cell cycle, respectively. All readings were performed on a BD FACSCanto II 4/2/2 Sys IVD flow cytometer, and data obtained were analyzed using the FlowJo7.6.2 software. Differences between treatments were determined by a two-way ANOVA for multiple comparisons with 95% significance using GraphPad Prism 8. In all cases, 20 µL of parasites (5 × 10^6/mL) were stained per treatment with 300 µL of Hanks’ balanced saline solution (HBSS) and 10 µL of the staining mix containing […], 0.5 µL of 70 nM DiOC6, and 0.5 µL of 10 mg/mL Hoechst. Subsequently, parasites were incubated at room temperature for 15 min until reading.
The same markers mentioned above were used for T. cruzi trypomastigotes. A total of 1 × 10^6 trypomastigotes were centrifuged at 1800 RCF for 5 min to remove the culture medium. Parasites were cultured at […] in PBS or 10% FBS-supplemented DMEM with or without 10 µM UBMC-4, 10 µM chloroquine, and 10 µM UBMC-4/chloroquine for 2 h and 5 h. All experiments were compared to a culture setup using bz as control compound. Three biological replicates and three experimental replicates were applied to data collected at each time point for experimental conduction of every portion of the study. In all cases, ANOVA was applied for multiple comparisons after determining that data were normal.

Compound	CC50 at 72 h [1]	CC50 at 72 h [2]	EC50 [3]	CC50 at 72 h [4]	selectivity index (SI) between huMDM and T. cruzi amastigotes ([5]; LC50 huMDM / EC50 amastigotes)	EC50 ([5]; Trypanosoma cruzi, TULAHUEN, U-937, 72 h, read-out: EC50 half maximal effective concentration for T. cruzi amastigotes)	mitochondrial membrane potential change (T. cruzi trypomastigotes; normal nutrition conditions)	mitochondrial membrane potential change (T. cruzi trypomastigotes; nutritional stress conditions)
O=C(Cn1ccnc1[N+](=O)[O-])NCc1ccccc1 [Benznidazole, benznidazole, reference compound]	> 760 µM	> 760 µM	1.8 ± 0.7 µM	> 760 µM	> 655	1.16 ± 0.03 µM		
CCN(CC)CCCC(C)Nc1ccnc2cc(Cl)ccc12 (centres unmarked) [chloroquine, reference compound]							no alteration in the mitochondrial membrane potential	hyperpolarization continued just as in the untreated controls
